# pIC50: −log10 of the molar value.
# Target: T1, Mdm2/p53 binding (GST-Mdm2 / His-p53) (Homo sapiens, UniProt Q00987, L33E)
# T1 construct: Mdm2 partial protein having Mdm2 amino acids at positions 25 to 108
# Assay: Mdm2/p53 binding assay (HTRF, His-p53 and GST-Mdm2)
# Conditions: His-p53 (aa 1-132) and GST-Mdm2 (aa 25-108, L33E) 6.25 nM each; 25°C, 1 hour; values given as ranges
# Protocol: A protein dilution containing 6.25 nM each of His-p53 (fusion protein of a p53 partial protein having p53 amino acids at positions 1 to 132, with a histidine protein) and GST-Mdm2 (fusion protein of an Mdm2 partial protein having Mdm2 amino acids at positions 25 to 108 with leucine residue 33 substituted by glutamic acid, with glutathione transferase) proteins was prepared using a protein buffer solution (20 mM HEPES pH 7.4, 150 mM NaCl, 0.1% BSA). This protein dilution was added in an amount of 8 μl/well to a 384-well plate (384-well low volume NBC, Corning Inc., catalog No: 3676).
# Next, a test compound was diluted with DMSO to produce a protein buffer solution containing 10% dilution, and this buffer solution was added in an amount of 4 μl/well to the plate.
# Subsequently, a solution containing an XL665-labeled anti-His antibody (HTRF monoclonal anti-6HIS antibody labeled with XL665 (catalog No: 61HISXLB), Schering/Cisbio Bioassays) and a europium (Eu)-labeled anti-GST antibody (HTRF monoclonal anti-GST antibody labeled with europium cryptate, Schering/Cisbio Bioassays, catalog No: 61GSTKLB) at concentrations of 2.5 μg/ml and 0.325 μg/ml, respectively, was prepared using an antibody diluting buffer solution (20 mM HEPES pH 7.4, 150 mM NaCl, 0.1% BSA, 0.5 M KF). These dilutions were added in an amount of 8 μl/well (total reaction solution volume: 20 μl/well). Then the plate was incubated at 25° ° C. for 1 hour.
# Time-resolved fluorescence at 620 and 665 nm was measured at an excitation wavelength of 320 nm using a plate reader (ARVOsx, PerkinElmer Co., Ltd. or PHERAstar, BMG LABTECH). Ratio (R) was calculated using the measured values (RFU 620 nm and RFU 665 nm) according to the following formula: […]
# BI: measured value at 665 nm of reaction solution (only each buffer solution) nonsupplemented with each protein, the compound, and the antibodies
# A and D: each measured value at 665 nm and 620 nm of reaction solution supplemented with only Eu-labeled anti-GST antibody solution
# The R value calculated from the well supplemented with His-p53, GST-Mdm2, the test compound, and each antibody was defined as R (sample). The R value calculated from the well supplemented with His-p53, GST-Mdm2, and each antibody but without the test compound was defined as R (control). The R value calculated from the well supplemented with GST-Mdm2 the test compound, and each antibody but without His-p53 was defined as R (background). T/C was calculated from the formula shown below. An IC50 value for Mdm2/p53 binding was calculated by sigmoid fitting.
# T1 sequence (Q00987 25-108 L33E): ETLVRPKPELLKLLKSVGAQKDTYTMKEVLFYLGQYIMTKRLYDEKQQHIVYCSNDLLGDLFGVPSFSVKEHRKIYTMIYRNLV
row,Compound,pIC50
1,CC1(C)CCC2(CC1)N[C@@H](C(=O)N[C@H]1CC[C@](O)(CO)CC1)[C@H](c1ccnc(Cl)c1F)[C@]21C(=O)Nc2cc(Cl)ccc21 [Example 39],7.00 to 7.30
2,"CC1(C)CCC2(CC1)N[C@@H](C(=O)N[C@H]1CC[C@H](c3noc(=O)[nH]3)CC1)[C@H](c1ccnc(Cl)c1F)[C@]21C(=O)Nc2cc(Cl)ccc21 [Example 41, (3′R, 4′S,5′R)-6″-chloro-4′-(2-chloro-3-fluoropyridin-4-yl)-4,4-dimethyl-2″-oxo-N-[trans-4-(5-oxo-4,5-dihydro-1,2,4-oxadiazol-3-yl)cyclohexyl]-1″,2″-dihydrodispiro[cyclohexane-1,2′-pyrrolidine-3′,3″-indole]-5′-carboxamide]",7.30 to 9.00
3,"CC1(C)CCC2(CC1)N[C@@H](C(=O)N[C@H]1CO[C@H](CO)[C@@H](O)C1)[C@H](c1cccc(Cl)c1F)[C@]21C(=O)Nc2cc(Cl)ccc21 [Example 42, (3′R, 4′S,5′R)-6″-chloro-4′-(3-chloro-2-fluorophenyl)-N-[(3R,5S,6R)-5-hydroxy-6-(hydroxymethyl)tetrahydro-2H-pyran-3-yl]-4,4-dimethyl-2″-oxo-1″,2″-dihydrodispiro[cyclohexane-1,2′-pyrrolidine-3′,3″-indole]-5′-carboxamide]",7.30 to 9.00
4,"CO[C@H]1C[C@@H](NC(=O)[C@@H]2NC3(CCC(C)(C)CC3)[C@@]3(C(=O)Nc4cc(Cl)ccc43)[C@H]2c2cccc(Cl)c2F)CO[C@@H]1CO [Example 43, (3′R, 4′S,5′R)-6″-chloro-4′-(3-chloro-2-fluorophenyl)-N-[(3R,5S,6R)-6-(hydroxymethyl)-5-methoxytetrahydro-2H-pyran-3-yl]-4,4-dimethyl-2″-oxo-1″,2″-dihydrodispiro[cyclohexane-1,2′-pyrrolidine-3′,3″-indole]-5′-carboxamide]",6.30 to 7.00
5,CC(=O)N(CCO)C[C@@H]1CC[C@@H](NC(=O)[C@@H]2NC3(CCC(C)(C)CC3)[C@@]3(C(=O)Nc4cc(Cl)ccc43)[C@H]2c2ccnc(Cl)c2F)CO1 [Example 44],7.30 to 9.00
6,"CO[C@H]1C[C@@H](NC(=O)[C@@H]2NC3(CCC(C)(C)CC3)[C@@]3(C(=O)Nc4cc(Cl)ccc43)[C@H]2c2ccnc(Cl)c2F)CO[C@@H]1CO [Example 45, (3′R, 4′S,5′R)-6″-chloro-4′-(2-chloro-3-fluoropyridin-4-yl)-N-[(3R,5S,6R)-6-(hydroxymethyl)-5-methoxytetrahydro-2H-pyran-3-yl]-4,4-dimethyl-2″-oxo-1″,2″-dihydrodispiro[cyclohexane-1,2′-pyrrolidine-3′,3″-indole]-5′-carboxamide]",7.00 to 7.30
7,"CC1(C)CCC2(CC1)N[C@@H](C(=O)N[C@@H]1CC[C@@H](C(C)(C)O)OC1)[C@H](c1cccc(Cl)c1F)[C@]21C(=O)Nc2cc(Cl)ccc21 [Example 46, (3′R, 4′S,5′R)-6″-chloro-4′-(3-chloro-2-fluorophenyl)-N-[(3R,6S)-6-(1-hydroxy-1-methylethyl)tetrahydro-2H-pyran-3-yl]-4,4-dimethyl-2′-oxo-1″; 2″-dihydrodispiro[cyclohexane-1,2′-pyrrolidine-3′,3″-indole]-5′-carboxamide]",7.30 to 9.00
8,"CC1(C)CCC2(CC1)N[C@@H](C(=O)N[C@H]1CC[C@H](c3noc(=O)[nH]3)CC1)[C@H](c1cccc(Cl)c1F)[C@]21C(=O)Nc2cc(Cl)ccc21 [Example 48, (3′S,4′S,5′R)-6′-chloro-4′-(3-chloro-2-fluorophenyl)-4,4-dimethyl-2″-oxo-N-[trans-4-(5-oxo-4,5-dihydro-1,2,4-oxadiazol-3-yl)cyclohexyl]-1″,2″-dihydrodispiro[cyclohexane-1,2′-pyrrolidine-3′,3″-indole]-5′-carboxamide]",7.30 to 9.00
9,"CC1(C)CCC2(CC1)N[C@@H](C(=O)N[C@@H]1CC[C@@H](c3nnco3)OC1)[C@H](c1ccnc(Cl)c1F)[C@]21C(=O)Nc2nc(Cl)ccc21 [Example 50, (3′R, 4′S,5′R)-6″-chloro-4′-(2-chloro-3-fluoropyridin-4-yl)-4,4-dimethyl-N-[(3R,6S)-6-(1,3,4-oxadiazol-2-yl)tetrahydro-2H-pyran-3-yl]-2″-oxo-1″,2″-dihydrodispiro[cyclohexane-1,2′-pyrrolidine-3′,3″-pyrrolo[2,3-b]pyridine]-3′-carboxamide]",7.00 to 7.30
10,"CC1(C)CCC2(CC1)N[C@@H](C(=O)N[C@@H]1CC[C@@H](c3nnco3)OC1)[C@H](c1cccc(Cl)c1F)[C@]21C(=O)Nc2nc(Cl)ccc21 [Example 52, (3′R, 4′S,5′R)-6″-chloro-4′-(3-chloro-2-fluorophenyl)-4,4-dimethyl-N-[(3R,6S)-6-(1,3,4-oxadiazol-2-yl)tetrahydro-2H-pyran-3-yl]-2″-oxo-1″,2″-dihydrodispiro[cyclohexane-1,2′-pyrrolidine-3′,3″-pyrrolo[2,3-b]pyridine]-5′-carboxamide]",7.00 to 7.30

# Now from value to molecule:
row,pIC50,Compound
1,7.30 to 9.00,"CC1(C)CCC2(CC1)N[C@@H](C(=O)N[C@@H]1CC[C@@H](c3n[nH]c(=O)o3)OC1)[C@H](c1cccc(Cl)c1F)[C@]21C(=O)Nc2nc(Cl)ccc21 [Example 55, (3′R, 4′S,5′R)-6″-chloro-4′-(3-chloro-2-fluorophenyl)-4,4-dimethyl-2″-oxo-N-[(3R,6S)-6-(5-oxo-4,5-dihydro-1,3,4-oxadiazol-2-yl)tetrahydro-2H-pyran-3-yl]-1″,2″-dihydrodispiro[cyclohexane-1,2′-pyrrolidine-3′,3″-pyrrolo[2,3-b]pyridine]-5′-carboxamide]"
2,7.30 to 9.00,"CC1(C)CCC2(CC1)N[C@@H](C(=O)N[C@@H]1CC[C@@H](c3n[nH]c(=O)o3)OC1)[C@H](c1ccnc(Cl)c1)[C@]21C(=O)Nc2cc(Cl)ccc21 [Example 56, (3′R, 4′R, 5′R)-6″-chloro-4′-(2-chloropyridin-4-yl)-4,4-dimethyl-2″-Oxo-N-[(3R,6S)-6-(5-oxo-4,5-dihydro-1,3,4-oxadiazol-2-yl)tetrahydro-2H-pyran-3-yl]-1″,2″-dihydrodispiro[cyclohexane-1,2′-pyrrolidine-3′,3″-indole]-5′-carboxamide]"
3,7.00 to 7.30,"CO[C@H]1C[C@@H](NC(=O)[C@@H]2NC3(CCC(C)(C)CC3)[C@@]3(C(=O)Nc4nc(Cl)ccc43)[C@H]2c2cccc(Cl)c2F)CO[C@@H]1CO [Example 58, (3′R, 4′S,5′R)-6″-chloro-4′-(3-chloro-2-fluorophenyl)-N-[(3R,5S,6R)-6-(hydroxymethyl)-5-methoxytetrahydro-2H-pyran-3-yl]-4,4-dimethyl-2″-oxo-1″,2″-dihydrodispiro[cyclohexane-1,2′-pyrrolidine-3′,3″-pyrrolo[2,3-b]pyridine]-5′-carboxamide]"
4,7.00 to 7.30,"CO[C@H]1C[C@@H](NC(=O)[C@@H]2NC3(CCC(C)(C)CC3)[C@@]3(C(=O)Nc4cc(Cl)ccc43)[C@H]2c2ccnc(Cl)c2)CO[C@@H]1CO [Example 59, (3′R, 4′R, 5′B)-6″-chloro-4′-(2-chloropyridin-4-yl)-N-[(3R,5S,6R)-6-(hydroxymethyl)-5-methoxytetrahydro-2H-pyran-3-yl]-4,4-dimethyl-2″-oxo-1″,2″-dihydrodispiro[cyclohexane-1,2′-pyrrolidine-3′,3″-indole]-5′-carboxamide]"
5,7.00 to 7.30,"COC[C@]1(O)CC[C@@H](NC(=O)[C@@H]2NC3(CCC(C)(C)CC3)[C@@]3(C(=O)Nc4cc(Cl)ccc43)[C@H]2c2ccnc(Cl)c2F)CC1 [Example 61, (3′R, 4′S,5′R)-6″-chloro-4′-(2-chloro-3-fluoropyridin-4-yl)-N-[cis-4-hydroxy-4-(methoxymethyl)cyclohexyl]-4,4-dimethyl-2″-oxo-1″,2″-dihydrodispiro[cyclohexane-1,2′-pyrrolidine-3′,3″-indole]-5′-carboxamide]"

# — patent US12545685B2 (Daiichi Sankyo Company, Limited, priority 2011, dated 2026)
